Experimental data taken from paper PMC4164625 (PLoS ONE, 2014).

Key:
recombinant human SIRT3 [1] = biological target: T1, recombinant human SIRT3 (Homo sapiens, UniProt Q9NTG7); assay: Fluorometric deacetylation assay, IC50 of NAM and isoNAM for SIRT3; type: biochemical; set-up: purchased Creative BioMart; conditions: 90 minutes incubation, 1 mM NAD^+ at 37°C (Methods b105: 100 µM NAD^+)
T1 sequence (Q9NTG7 1-399): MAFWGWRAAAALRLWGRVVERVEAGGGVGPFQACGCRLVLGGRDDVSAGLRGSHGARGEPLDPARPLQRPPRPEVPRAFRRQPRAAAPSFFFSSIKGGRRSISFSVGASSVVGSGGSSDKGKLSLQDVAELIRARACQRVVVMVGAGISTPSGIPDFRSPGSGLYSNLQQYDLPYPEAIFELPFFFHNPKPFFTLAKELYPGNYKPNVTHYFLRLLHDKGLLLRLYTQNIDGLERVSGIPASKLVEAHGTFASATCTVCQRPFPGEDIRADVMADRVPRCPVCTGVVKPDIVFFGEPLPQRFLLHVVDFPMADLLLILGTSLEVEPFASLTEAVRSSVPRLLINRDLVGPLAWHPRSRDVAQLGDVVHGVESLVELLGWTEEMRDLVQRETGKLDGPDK

recombinant human SIRT1 [2] = biological target: T2, recombinant human SIRT1 (Homo sapiens, UniProt Q96EB6); assay: Fluorometric deacetylation assay, IC50 of NAM and isoNAM for SIRT1
T2 sequence (Q96EB6 1-747): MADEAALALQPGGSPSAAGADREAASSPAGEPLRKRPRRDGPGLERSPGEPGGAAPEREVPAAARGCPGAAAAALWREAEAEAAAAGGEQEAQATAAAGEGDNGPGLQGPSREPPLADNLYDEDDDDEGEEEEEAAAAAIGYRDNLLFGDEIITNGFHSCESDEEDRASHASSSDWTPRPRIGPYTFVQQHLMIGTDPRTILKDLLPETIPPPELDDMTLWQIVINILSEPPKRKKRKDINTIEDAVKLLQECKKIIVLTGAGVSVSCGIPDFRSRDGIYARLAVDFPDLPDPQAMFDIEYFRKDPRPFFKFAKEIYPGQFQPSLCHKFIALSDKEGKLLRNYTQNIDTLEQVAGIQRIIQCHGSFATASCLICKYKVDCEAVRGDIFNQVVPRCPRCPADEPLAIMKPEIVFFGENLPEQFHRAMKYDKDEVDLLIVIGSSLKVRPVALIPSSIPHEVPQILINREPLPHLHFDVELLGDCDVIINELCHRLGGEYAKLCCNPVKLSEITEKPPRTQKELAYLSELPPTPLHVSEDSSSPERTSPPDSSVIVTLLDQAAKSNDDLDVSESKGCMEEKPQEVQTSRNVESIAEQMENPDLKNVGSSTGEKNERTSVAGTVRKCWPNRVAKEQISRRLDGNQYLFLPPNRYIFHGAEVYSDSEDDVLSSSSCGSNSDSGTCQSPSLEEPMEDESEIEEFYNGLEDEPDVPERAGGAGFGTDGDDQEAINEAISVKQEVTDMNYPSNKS

recombinant human SIRT3 [3] = biological target: T1, recombinant human SIRT3; assay: SIRT3 initial-rate inhibition kinetics against NAD+, global nonlinear fitting (Eq. 1 / Eq. 2)
bacterial Sir2 = conditions: cited from earlier work
yeast Sir2 = conditions: cited from earlier work
mouse Sir2 = conditions: cited from earlier work
SIRT1 = conditions: cited from earlier work
SIRT2 = conditions: cited from earlier work
SIRT5 = conditions: cited from earlier work
recombinant human SIRT1 [4] = biological target: T2, recombinant human SIRT1; assay: SIRT1 initial-rate inhibition kinetics against NAD+, global nonlinear fitting (Eq. 1); type: biochemical; set-up: purchased Enzo Life Sciences AK 555
Text: We utilized a novel deacetylation activity assay that generates a fluorescent signal upon deacetylation of a peptide substrate.
Data are globally nonlinear fitted to base exchange inhibition model (Eq. 1) and shown as a double-reciprocal plot of 1/v versus 1/[NAD^+]. In (C) and (D), the intersection points of the double reciprocal plots are enlarged for SIRT1 and SIRT3, respectively.

SMILES | IC50 (recombinant human SIRT3 [1]) [µM] | IC50 (recombinant human SIRT1 [2]) [µM] | Ki (recombinant human SIRT3 [3]; K 2(K i), K2 of Eq. 1 for NAM, Ki of Eq. 2 for isoNAM (in brackets), unit inferred, b71 gives isoNAM Ki≈4.6 mM) [µM] | Ki (recombinant human SIRT3 [3]; Ki, from fitting of Eq. 2, as restated in the Discussion) [µM] | Inhibition mode with respect to NAD^+ (recombinant human SIRT3 [3]; double reciprocal plot / value of α) | Vmax, model parameter estimate (recombinant human SIRT3 [3]; global nonlinear fit of initial rates with the named inhibitor (Eq. 1 for NAM, Eq. 2 for isoNAM)) [µM/min] | Michaelis constant, model parameter estimate (recombinant human SIRT3 [3]; global nonlinear fit of initial rates with the named inhibitor (Eq. 1 for NAM, Eq. 2 for isoNAM), varying NAD^+, saturating peptide, 37°C) [µM] | IC50 (bacterial Sir2) [µM] | IC50 (yeast Sir2) [µM] | IC50 (mouse Sir2) [µM] | IC50 (SIRT1) [µM] | IC50 (SIRT2) [µM] | IC50 (SIRT5) [µM] | Vmax, model parameter estimate (recombinant human SIRT1 [4]; global nonlinear fit of initial rates with NAM (Eq. 1)) [µM/min] | Michaelis constant, model parameter estimate (recombinant human SIRT1 [4]; global nonlinear fit of initial rates with NAM (Eq. 1), varying NAD^+, saturating peptide, 37°C) [µM] | α (recombinant human SIRT1 [4]; mixed inhibition model, K3≡αK2 (Eq. 1))
NC(=O)c1ccncc1 [isoNAM, isonicotinamide] | 13800 ± 500 | 12200 ± 300 | 4620 | ~4600 | competitive inhibitor | 0.167 | 1402 | – | – | – | – | – | – | – | – | –
NC(=O)c1cccnc1 [NAM, nicotinamide] | – | – | – | – | – | – | – | 26 | 120 | 160 | 50 | […] | 1600 | 0.863 | 168.2 | 0.848
